In paper PMC6934184, “Selective DNA-PKcs inhibition extends the therapeutic index of localized radiotherapy and chemotherapy” (The Journal of Clinical Investigation, 2019):

Molecular target: T1, MAPK13 (p38 delta) (Homo sapiens, UniProt O15264)
T1 construct: purchased Thermo Fisher Scientific (Life Technologies) SelectScreen
Experiment: SelectScreen Z'LYTE
Assay type: biochemical
Outline: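 Percent values come from Thermo SelectScreen profiling of NU5455, combining activity and binding assays. CSF1R was run in Z'LYTE format at Km app ATP, and CAMK1 in Adapta format with ATP listed at 10.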

T1 sequence (O15264 whole entry): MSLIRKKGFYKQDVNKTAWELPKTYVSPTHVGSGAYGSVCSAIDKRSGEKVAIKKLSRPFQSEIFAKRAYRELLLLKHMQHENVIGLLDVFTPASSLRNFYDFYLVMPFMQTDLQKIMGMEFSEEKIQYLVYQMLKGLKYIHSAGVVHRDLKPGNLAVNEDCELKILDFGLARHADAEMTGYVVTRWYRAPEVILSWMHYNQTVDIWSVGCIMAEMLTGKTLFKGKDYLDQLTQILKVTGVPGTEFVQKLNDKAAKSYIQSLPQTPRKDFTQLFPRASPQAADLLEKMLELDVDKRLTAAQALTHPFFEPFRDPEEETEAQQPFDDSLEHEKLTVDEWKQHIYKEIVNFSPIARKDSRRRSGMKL

Question: With `CN(C(=O)CN1CCOCC1)c1ccc2sc3c(-c4cccc5c(=O)cc(N6CC7CCC(C6)O7)oc45)cccc3c2c1` [NU5455] as the compound, how does the inhibition at 1 µM read?
Answer: 5.8%
